{"source": "patent US8853193B2", "about": "“Thienopyrimidines containing a substituted alkyl group for pharmaceutical compositions” (Boehringer Ingelheim International GmbH, priority 2010, dated 2014)", "target": "human Mnk2a (Homo sapiens (Human), UniProt Q9HBH9)", "sequence (Q9HBH9 whole entry)": "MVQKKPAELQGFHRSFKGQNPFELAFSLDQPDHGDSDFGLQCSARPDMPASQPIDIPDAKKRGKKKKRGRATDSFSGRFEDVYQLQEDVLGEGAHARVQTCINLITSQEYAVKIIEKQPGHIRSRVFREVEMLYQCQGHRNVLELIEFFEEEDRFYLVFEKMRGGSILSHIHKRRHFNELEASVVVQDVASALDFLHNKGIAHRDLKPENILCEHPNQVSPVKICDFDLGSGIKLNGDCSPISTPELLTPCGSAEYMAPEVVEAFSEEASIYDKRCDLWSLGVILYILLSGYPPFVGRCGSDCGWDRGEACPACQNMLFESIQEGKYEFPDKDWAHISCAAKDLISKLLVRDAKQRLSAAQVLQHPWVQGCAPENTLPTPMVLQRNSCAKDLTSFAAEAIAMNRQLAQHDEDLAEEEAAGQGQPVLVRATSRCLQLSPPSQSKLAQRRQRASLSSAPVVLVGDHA", "experiment": "Mnk2a in vitro kinase assay (indirect competitive fluorescence polarization)", "type": "biochemical", "settings": "pre-activated GST-Mnk2a 2.5 nM, 20 μM ATP, 30 μM substrate peptide; read-out: MNK2 IC50", "description": "Inhibitory potency of compounds against Mnk1, Mnk2a and other kinases was assessed with assays based on a format known to those skilled in the art as the indirect (competitive) fluorescence polarization. The assay detection system comprises a small fluorophore-labeled phospho-peptide (termed ligand) bound to a phospho-specific antibody. The product generated by the kinase reaction competes with the ligand for antibody binding. Based on the larger molecular volume of the bound ligand, which results in a lower rotation rate in solution, its emitted light has a higher degree of polarization than the one from the free ligand.\nIn brief, the open reading frames of human Mnk1 and Mnk2a were amplified from cDNA using the forward/reverse primer pairs\n(utilized restriction sites underlined), respectively, and cloned into the BamHI and SalI sites of the vector pGEX-4T1 (Amersham, Sweden, cat. no. 27-4580-01). These constructs allow prokaryotic expression of Mnk1 or Mnk2a as fusion protein with a N-terminal glutathione S-transferase (GST) tag, referred to as GST-Mnk1 or GST-Mnk2a. The following expression and purification procedure was identical for GST-Mnk1 and GST-Mnk2a, referring in general to GST-Mnk, when not distinguishing between the two isoforms. Expression of GST-Mnk was in E. coli BL21 (Merck Biosciences, Germany, cat. no. 69449). Cells were grown in LB-Bouillon (Merck, Germany, cat. no. 1.10285) supplemented with 100 μg/ml ampicillin (Sigma, Germany, cat. no. A9518) at 37° C. […] Cells harvested by centrifugation were resuspended in 10 ml lysis buffer (50 mM tris(hydroxymethyl)aminomethane hydrochloride (Tris/HCl, Sigma, Germany, cat. no. T5941) pH 7.5, 300 mM sodium chloride (NaCl, Sigma, Germany, cat. no. S7653), 5% (w/v) glycerol (Sigma, Germany, cat. no. G5516), 3 mM DTT dithiotreitol (DTT, Sigma, Germany, cat. no. D9779)) per gram wet weight cell pellet. Lysates were prepared by disruption of cells with a sonifier and subsequent clearing by centrifugation at 38000 g for 45 min at 4° C.\nThe lysate was applied to a GSTPrep FF 16/10 column (Amersham, Sweden, cat. no. 17-5234-01) equilibrated with lysis buffer. Removal of unbound material was with 3 column volumes (CV) lysis buffer. Elution was with 2 CV of elution buffer (50 mM Tris/HCl pH 7.5, 300 mM NaCl, 5% (w/v) glycerol, 20 mM glutathione (Sigma, Germany, cat. no. G4251)). Peak fractions were pooled and the protein transferred into storage buffer (50 mM Tris/HCl pH 7.5, 200 mM NaCl, 0.1 mM ethylene glycol[…] bis(2-aminoethylether)-N,N,N′,N′-tetraacetic acid (EGTA, Aldrich, Germany, cat. no. 23, 453-2), 1 mM DTT, 10% (w/v) glycerol, 0.5 M sucrose (Sigma, Germany, cat. no. S0389) by gel filtration on a PD10 desalting column (Amersham, Sweden, cat. no. 17-0851-01). Aliquots were shock frozen in liquid nitrogen and stored at −80° C.\nActivation of Mnk1 and Mnk2a was at a concentration of 2.5 μM of either purified GST-Mnk1 or GST-Mnk2a by incubation with 150 nM pre-activated NHis-ERK2 (see ERK2 assay for preparation) and 50 μM adenosine triphosphate (ATP, Sigma, cat. no. A2699) in a buffer comprising 20 mM N-(2-hydroxyethyl)piperazine-N′-(2-ethanesulfonic acid) (HEPES, Fluka, Germany, cat. no 54459)/potassium hydroxide (KOH, Roth, Germany, cat. no 6751.1) pH 7.4, 10 mM magnesium chloride (MgCl2, Sigma, Germany, cat. no. M2670), 0.25 mM DTT, 0.05% (w/v) polyoxyethylene 20 stearylether (Brij 78, Sigma, Germany, cat. no. P4019) (HMDB buffer) for 45 min at 30° C. After the incubation, the preparation was aliquoted into single-use samples, shock frozen in liquid nitrogen, stored at −80° C. and utilized for Mnk1 or Mnk2a kinase assays as detailed below.\nThe serine residue phosphorylated by Mnk kinases is underlined.", "note": "Where a name gives a salt, the structure may show the parent alone."}
{"smiles": "Cc1c(C(=O)N[C@@H]2C[C@H]2NC(=O)OC(C)(C)C)sc2ncnc(Nc3ccc(F)cc3OC(CF)CF)c12", "note": "[Compound 23-5, Tert-butyl (1R,2R)-2-(4-2(1,3-difluoro-propan-[2,3-d]pyrimidine-6-carboxamido)cyclopropyl carbamate]", "values": [{"measurement": "IC50", "value": 13, "unit": "nM"}]}
{"smiles": "Cc1c(C(=O)NCCCN(C)C)sc2ncnc(Nc3ccc(F)cc3OC(CF)CF)c12", "note": "[Compound 23-6, 4-(2-(1,3-difluoro-propan-2-yloxy)-4-fluorophenylamino)-N-(3-(dimethylamino)-propyl)-5-methyl-thieno[2,3-d]-pyrimidine-6-carboxamide]", "values": [{"measurement": "IC50", "value": 10, "unit": "nM"}]}
{"smiles": "Cc1c(C(=O)NCCN(C)C)sc2ncnc(Nc3ccc(F)cc3OC(CF)CF)c12", "note": "[Compound 23-7, 4-(2-(1,3-difluoro-propan-2-yloxy)-4-fluorophenylamino)-N-(2-(dimethylamino)-ethyl)-5-methylthieno-[2,3-d]-pyrimidine-6-carboxamide]", "values": [{"measurement": "IC50", "value": 17, "unit": "nM"}]}
{"smiles": "Cc1c(C(=O)NCCO)sc2ncnc(Nc3ccc(F)cc3OC(CF)CF)c12", "note": "[Compound 23-8]", "values": [{"measurement": "IC50", "value": 8, "unit": "nM"}]}
{"smiles": "Cc1c(C(=O)NCC#CCN(C)C)sc2ncnc(Nc3ccc(F)cc3OC(CF)CF)c12", "note": "[Compound 23-9, 4-(2-(1,3-difluoro-propan-2-yloxy)-4-fluorophenylamino)-N-(4-(dimethylamino)-but-2ynyl)-5-methyl-thieno[2,3-d]pyrimidine-6-carboxamide]", "values": [{"measurement": "IC50", "value": 7, "unit": "nM"}]}
{"smiles": "Cc1c(C(=O)NCCCN2CCCC2)sc2ncnc(Nc3ccc(F)cc3OC(CF)CF)c12", "note": "[Compound 23-10, 4-(2-(1,3-difluoro-propan-2-yloxy)-4-fluorophenylamino)-5-methyl-N-(3-(pyrrolidin-1-yl)propyl)thieno[2,3-d]pyrimidine-6-carboxamide]", "values": [{"measurement": "IC50", "value": 7, "unit": "nM"}]}
{"smiles": "Cc1c(C(=O)NS(C)(=O)=O)sc2ncnc(Nc3ccc(F)cc3OC(CF)CF)c12", "note": "[Compound 24, 4-(2-(1,3-Difluoropropan-2-yloxy)-4-fluorophenylamino)-5-methyl-N-(methylsulfonyl)thieno[2,3-d]pyrimidine-6-carboxamide]", "values": [{"measurement": "IC50", "value": 7, "unit": "nM"}]}
{"smiles": "Cc1c(C(=O)NCCCN(C)C)sc2ncnc(Nc3ccc(F)cc3OCC3CCOCC3)c12", "note": "[Compound 26-3]", "values": [{"measurement": "IC50", "value": 790, "unit": "nM"}]}
{"smiles": "Cc1c(C(=O)O)sc2ncnc(Nc3cccnc3OCC(C)F)c12", "note": "(centres unmarked) [Compound 27-2, 4-(2-(2-Fluoropropoxy)pyridin-3-ylamino)-5-methyl-thieno[2,3-d]pyrimidine-6-carboxylic acid]", "values": [{"measurement": "IC50", "value": 33, "unit": "nM"}]}
{"smiles": "Cc1c(C(=O)NCCO)sc2ncnc(Nc3cccnc3OCC(C)F)c12", "note": "(centres unmarked) [Compound 27-3, 4-(2-(2-Fluoropropoxy)pyridin-3-ylamino)-N-(2-hydroxyethyl)-5-methyl-thieno[2,3-d]pyrimidine-6-carboxamide]", "values": [{"measurement": "IC50", "value": 58, "unit": "nM"}]}
{"smiles": "Cc1c(C(=O)NCCCN(C)C)sc2ncnc(Nc3cccnc3OCC(C)F)c12", "note": "(centres unmarked) [Compound 27-4, N-(3-(dimethylamino)-propyl)-4-(2-(2-fluoro-propoxy)pyridin-3-ylamino)-5-methyl-thieno[2,3-d]pyrimidine-6-carboxamide hydrochloride]", "values": [{"measurement": "IC50", "value": 73, "unit": "nM"}]}
{"smiles": "COCC(C)Oc1ncccc1Nc1ncnc2sc(C(N)=O)c(C)c12", "note": "(centres unmarked) [Compound 28-3, 4-(2-(1-Methoxygrogan-2-yloxy)gyridin-3-ylamino)-5-methyl-thieno[2,3-d]gyrimidine-6-carboxamide]", "values": [{"measurement": "IC50", "value": 26, "unit": "nM"}]}
{"smiles": "COCC(C)Oc1ncccc1Nc1ncnc2sc(C(=O)NCCO)c(C)c12", "note": "(centres unmarked) [Compound 28-4, N-(2-hydroxy-ethyl)-4-(2-(1-methoxy-propan-2-yloxy)pyridin-3-ylamino)-5-methylthieno-[2,3-d]-pyrimidine-6-carbox-amide]", "values": [{"measurement": "IC50", "value": 78, "unit": "nM"}]}
{"smiles": "COCC(C)Oc1ncccc1Nc1ncnc2sc(C(=O)NCCCN(C)C)c(C)c12", "note": "(centres unmarked) [Compound 28-5, N-(3-(di-methylamino)propyl)-4-(2-(1-methoxy-propan-2-yloxy)pyridin-3-ylamino)-5-methlthieno-[2,3-d]pyrimi-dine-6-carboxamide hydrochloride]", "values": [{"measurement": "IC50", "value": 93, "unit": "nM"}]}
